Values of other authors in patent US9555029B2 (HIKMA PHARMACEUTICALS, priority 2013, dated 2017).

Experiments:
[1] = target: CYP3A4 (Homo sapiens, UniProt P08684); conditions: FDA definition of relative strength; cited from earlier work
[2] = target: P-gp (Homo sapiens, UniProt P08183); conditions: FDA definition; cited from earlier work
P-gp, sequence (P08183 whole entry): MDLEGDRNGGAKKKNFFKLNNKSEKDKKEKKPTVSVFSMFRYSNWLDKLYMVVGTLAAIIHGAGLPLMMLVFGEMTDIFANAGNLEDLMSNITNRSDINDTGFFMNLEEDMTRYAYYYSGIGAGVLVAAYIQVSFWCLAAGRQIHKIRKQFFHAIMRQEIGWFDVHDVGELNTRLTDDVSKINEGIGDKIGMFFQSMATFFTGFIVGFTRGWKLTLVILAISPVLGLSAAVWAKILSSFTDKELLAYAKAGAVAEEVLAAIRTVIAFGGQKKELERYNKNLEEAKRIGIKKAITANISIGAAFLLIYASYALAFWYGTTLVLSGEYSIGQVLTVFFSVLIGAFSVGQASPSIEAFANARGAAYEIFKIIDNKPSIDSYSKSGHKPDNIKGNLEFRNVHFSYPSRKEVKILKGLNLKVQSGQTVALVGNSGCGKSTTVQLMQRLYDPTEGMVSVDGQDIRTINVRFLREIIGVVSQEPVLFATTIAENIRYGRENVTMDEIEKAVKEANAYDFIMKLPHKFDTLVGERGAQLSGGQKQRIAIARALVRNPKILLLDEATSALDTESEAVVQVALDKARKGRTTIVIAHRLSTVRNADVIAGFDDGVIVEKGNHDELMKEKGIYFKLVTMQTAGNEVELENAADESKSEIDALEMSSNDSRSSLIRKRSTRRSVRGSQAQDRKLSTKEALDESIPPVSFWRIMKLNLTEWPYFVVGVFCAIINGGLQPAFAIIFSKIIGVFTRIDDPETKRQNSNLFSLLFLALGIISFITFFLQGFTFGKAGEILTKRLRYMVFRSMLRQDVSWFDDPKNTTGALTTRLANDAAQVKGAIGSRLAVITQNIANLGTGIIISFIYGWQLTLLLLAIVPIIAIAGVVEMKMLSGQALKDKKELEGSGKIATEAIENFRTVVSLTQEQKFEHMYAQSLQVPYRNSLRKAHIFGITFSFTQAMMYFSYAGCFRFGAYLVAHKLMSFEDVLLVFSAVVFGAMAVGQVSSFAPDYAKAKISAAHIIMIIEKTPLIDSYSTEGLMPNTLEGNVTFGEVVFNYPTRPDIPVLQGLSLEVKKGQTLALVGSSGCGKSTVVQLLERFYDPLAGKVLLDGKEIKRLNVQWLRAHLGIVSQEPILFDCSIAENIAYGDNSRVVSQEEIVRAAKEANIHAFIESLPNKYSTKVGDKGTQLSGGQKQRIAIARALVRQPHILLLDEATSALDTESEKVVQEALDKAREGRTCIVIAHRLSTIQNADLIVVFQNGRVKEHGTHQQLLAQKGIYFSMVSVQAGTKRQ

CYP3A4, sequence (P08684 whole entry): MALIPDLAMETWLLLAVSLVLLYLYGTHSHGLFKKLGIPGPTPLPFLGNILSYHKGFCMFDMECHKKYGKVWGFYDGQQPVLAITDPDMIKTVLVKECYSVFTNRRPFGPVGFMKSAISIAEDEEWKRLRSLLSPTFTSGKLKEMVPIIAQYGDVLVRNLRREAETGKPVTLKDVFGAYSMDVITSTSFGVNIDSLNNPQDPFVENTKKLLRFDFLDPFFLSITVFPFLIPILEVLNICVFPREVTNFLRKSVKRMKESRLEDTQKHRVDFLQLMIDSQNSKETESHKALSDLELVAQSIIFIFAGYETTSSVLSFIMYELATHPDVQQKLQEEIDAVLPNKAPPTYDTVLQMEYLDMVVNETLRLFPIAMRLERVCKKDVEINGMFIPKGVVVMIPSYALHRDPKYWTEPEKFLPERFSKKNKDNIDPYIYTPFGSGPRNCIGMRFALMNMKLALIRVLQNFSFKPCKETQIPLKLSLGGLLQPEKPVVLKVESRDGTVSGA

SMILES	Strength as inhibitor of CYP3A4 [1]	Inhibitor of P-gp [2]
OC(Cn1cncn1)(Cn1cncn1)c1ccc(F)cc1F [Fluconazole, 2-(2,4-difluorophenyl)-1,3-bis(1H-1,2,4-triazol-1-yl)propan-2-ol]	moderate (“Moderate inhibitors” cause ≧2-fold but <5-fold (i.e., 100-399%) increase in AUC)	not an inhibitor
C[C@@H](c1ncncc1F)[C@](O)(Cn1cncn1)c1ccc(F)cc1F [Voriconazole, (2R,3S)-2-(2,4-difluorophenyl)-3-(5-fluoropyrimidin-4-yl)-1-(1H-1,2,4-triazol-1-yl)butan-2-ol]	–	not an inhibitor
CN/C(=N/CCSCc1nc[nH]c1C)NC#N [Cimetidine, 2-cyano-1-methyl-3-(2-[(5-methyl-1H-imidazol-4-yl)methylthio]ethyl)guanidine]	–	not an inhibitor
